The results in this text go back to patent US20220363665A1, “QUINOLINE COMPOUNDS FOR THE TREATMENT OF AUTOIMMUNE DISEASE” (Hoffmann-La Roche Inc., priority 2019, published 2022).

A value given as a limit tells only on which side of the number the result lay.

The target in the experiment is T1, human TLR8 (Homo sapiens, UniProt Q9NR97).
T1 construct: host or cells: HEK293 (HEK-Blue hTLR8)
T1 sequence (Q9NR97 27-1041): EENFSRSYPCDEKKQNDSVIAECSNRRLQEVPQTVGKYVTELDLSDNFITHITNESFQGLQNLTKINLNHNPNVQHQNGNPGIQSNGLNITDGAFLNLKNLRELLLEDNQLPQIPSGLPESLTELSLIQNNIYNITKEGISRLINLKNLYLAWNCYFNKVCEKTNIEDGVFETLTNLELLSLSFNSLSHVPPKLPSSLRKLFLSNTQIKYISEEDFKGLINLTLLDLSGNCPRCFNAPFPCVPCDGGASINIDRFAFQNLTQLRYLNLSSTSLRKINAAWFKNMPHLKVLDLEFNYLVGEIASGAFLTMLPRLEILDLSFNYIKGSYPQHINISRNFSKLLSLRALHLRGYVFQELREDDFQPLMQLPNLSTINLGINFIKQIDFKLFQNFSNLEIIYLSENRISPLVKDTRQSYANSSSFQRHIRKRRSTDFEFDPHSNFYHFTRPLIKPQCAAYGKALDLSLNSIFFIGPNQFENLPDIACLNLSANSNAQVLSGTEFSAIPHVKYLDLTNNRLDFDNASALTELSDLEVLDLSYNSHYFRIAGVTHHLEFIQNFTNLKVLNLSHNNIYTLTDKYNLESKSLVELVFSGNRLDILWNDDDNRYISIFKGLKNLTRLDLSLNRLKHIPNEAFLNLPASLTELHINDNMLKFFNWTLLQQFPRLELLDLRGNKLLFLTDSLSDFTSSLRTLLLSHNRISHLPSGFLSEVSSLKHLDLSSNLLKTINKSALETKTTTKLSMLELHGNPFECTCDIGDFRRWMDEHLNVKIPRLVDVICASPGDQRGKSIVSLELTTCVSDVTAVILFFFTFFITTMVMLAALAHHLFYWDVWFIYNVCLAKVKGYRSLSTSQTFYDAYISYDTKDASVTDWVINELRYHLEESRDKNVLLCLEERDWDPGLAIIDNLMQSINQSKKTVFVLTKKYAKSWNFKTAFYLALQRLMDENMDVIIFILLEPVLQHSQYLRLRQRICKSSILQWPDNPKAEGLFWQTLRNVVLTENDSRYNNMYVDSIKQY
Briefly: HEK293-Blue-hTLR-8 cells assay (SEAP reporter, R848 stimulation). The format is cell-based. The settings on record: HEK293-Blue-hTLR8 cells, R848, 20 hrs. How it is done: The following tests were carried out in order to determine the activity of the compounds of formula (I) in HEK293-Blue-hTLR-7/8/9 cells assay.
HEK293-Blue-hTLR-8 Cells Assay:
A stable HEK293-Blue-hTLR-8 cell line was purchased from InvivoGen (Cat. #: hkb-htlr8, San Diego, Calif., USA). These cells were originally designed for studying the stimulation of human TLR8 by monitoring the activation of NF-κB. A SEAP (secreted embryonic alkaline phosphatase) reporter gene was placed under the control of the IFN-β minimal promoter fused to five NF-κB and AP-1-binding sites. The SEAP was induced by activating NF-κB and AP-1 via stimulating HEK-Blue hTLR8 cells with TLR8 ligands. Therefore the reporter expression was declined by TLR8 antagonist under the stimulation of a ligand, such as R848, for incubation of 20 hrs. The cell culture supernatant SEAP reporter activity was determined using QUANTI-Blue™ kit (Cat #. rep-qbl, Invivogen, San Diego, Calif., USA) at a wavelength of 640 nm, a detection medium that turns purple or blue in the presence of alkaline phosphatase.
HEK293-Blue-hTLR8 cells were incubated at a density of 250,000˜450,000 cells/mL in a volume of 170 μL in a 96-well plate in Dulbecco's Modified Eagle's medium (DMEM) containing 4.5 g/L glucose, 50 U/mL penicillin, […], […], 2 mM L-glutamine, 10% (v/v) heat-inactivated fetal bovine serum with addition of 20 μL test compound in a serial dilution in the presence of final DMSO at 1% and 10 μL of 60 μM R848 in above DMEM, perform incubation under 37° C. in a CO2 incubator for 20 hrs. Then 20 μL of the supernatant from each well was incubated with 180 μL Quanti-blue substrate solution at 37° C. for 2 hrs and the absorbance was read at 620˜655 nm using a spectrophotometer. The signalling pathway that TLR8 activation leads to downstream NF-KB activation has been widely accepted, and therefore similar reporter assay was modified for evaluating TLR8 antagonist.
Broadly, the IC50 is the point on the concentration scale where inhibition reaches its midpoint. Higher therefore signals weaker potency. In turn, `C[C@@H]1CN(c2ccc(C(F)(F)F)c3ncccc23)C[C@H](C(=O)NC2CC3COCC(C2)N3)O1` (stereo partly drawn) [Example 33, (2R,6R)-6-methyl-N-(3-oxa-9-azabicyclo[3.3.1]nonan-7-yl)-4-[8-(trifluoromethyl)-5-quinolyl]morpholine-2-carboxamide] registered an IC50 below 3 nM. In the case of `C[C@@H]1CN(c2ccc(C(F)(F)F)c3ncccc23)C[C@H](C(=O)NC2CNC[C@@H]2F)O1` (stereo partly drawn) [Example 2, cis-(2R,6R)-N-(4-fluoropyrrolidin-3-yl)-6-methyl-4-[8-(trifluoromethyl)-5-quinolyl]morpholine-2-carboxamide], the IC50 is 6 nM. Next, `C[C@@H]1CN(c2ccc(C(F)(F)F)c3ncccc23)C[C@H](C(=O)N2CCC(N)C2)O1` (stereo partly drawn) [Example 10, (3-aminopyrrolidin-1-yl)-[(2R,6R)-6-methyl-4-[8-(trifluoromethyl)-5-quinolyl]morpholin-2-yl]methanone]: 29 nM.

The compound `Cc1ccc(N2C[C@@H](C)O[C@@H](C(=O)NC3CCN(C)CC3)C2)c2cccnc12` [Example 16, (2R,6R)-6-methyl-N-(1-methyl-4-piperidyl)-4-(8-methyl-5-quinolyl)morpholine-2-carboxamide] had an IC50 of 8 nM. In turn, `C[C@@H]1CN(c2ccc(C(F)(F)F)c3ncccc23)C[C@H](C(=O)N2CCC3(CCNCC3)CC2)O1` [Example 32, 3,9-diazaspiro[5.5]undecan-3-yl-[(2R,6R)-6-methyl-4-[8-(trifluoromethyl)-5-quinolyl]morpholin-2-yl]methanone] had an IC50 of 20 nM. `C[C@@H]1CN(c2ccc(C(F)(F)F)c3ncccc23)C[C@H](C(=O)NCC2CNCCO2)O1` (stereo partly drawn) [Example 48, (2R,6R)-6-methyl-N-(morpholin-2-ylmethyl)-4-[8-(trifluoromethyl)-5-quinolyl]morpholine-2-carboxamide] registered an IC50 below 3 nM. The result for `C[C@@H]1CN(c2ccc(C(F)(F)F)c3ncccc23)C[C@H](C(=O)NC[C@@H]2C[C@@H](F)CN2)O1` [Example 27, (2R,6R)-N-[[(2S,4R)-4-fluoropyrrolidin-2-yl]methyl]-6-methyl-4-[8-(trifluoromethyl)-5-quinolyl]morpholine-2-carboxamide] reads 21 nM; that for `CC(NC(=O)[C@H]1CN(c2ccc(C(F)(F)F)c3ncccc23)C[C@@H](C)O1)C1CN(C)CCO1` (single isomer, unassigned) [Example 35A], 6 nM. For the compound `C[C@@H]1CN(c2ccc([N+](=O)[O-])c3ncccc23)C[C@H](C(=O)NCC2CN(C)CCO2)O1` (stereo partly drawn) [Example 18, (2R,6R)-6-methyl-N-[(4-methylmorpholin-2-yl)methyl]-4-(8-nitro-5-quinolyl)morpholine-2-carboxamide], the IC50 was below 3 nM.

As to `C[C@@H]1CN(c2ccc(C(F)(F)F)c3ncccc23)C[C@H](C(=O)NC2C3CCCC2CNC3)O1` (stereo partly drawn) [Example 45, (2R,6R)-N-(3-azabicyclo[3.3.1]nonan-9-yl)-6-methyl-4-[8-(trifluoromethyl)-5-quinolyl]morpholine-2-carboxamide], the IC50 is below 3 nM. Next, `C[C@H]1C[C@@H](N)CN(c2ccc(Cl)c3ncccc23)C1` [Example 23, (3R,5S)-1-(8-chloro-5-quinolyl)-5-methyl-piperidin-3-amine]: 4 nM; `C[C@@H]1CN(c2ccc(C(F)(F)F)c3ncccc23)C[C@H](C(=O)NCC2CN(C)CCO2)O1` (stereo partly drawn) [Example 3, (2R,6R)-6-methyl-N-[(4-methylmorpholin-2-yl)methyl]-4-[8-(trifluoromethyl)-5-quinolyl]morpholine-2-carboxamide]: below 3 nM. In turn, `C[C@@H]1CN(c2ccc(C(F)(F)F)c3ncccc23)C[C@H](C(=O)NC2CC3CNCC32)O1` (single isomer, unassigned) [Example 49B] returned an IC50 of 9 nM. The result for `C[C@@H]1CN(c2ccc(I)c3ncccc23)C[C@H](C(=O)NC2CCN(C)CC2)O1` [Example 38, (2R,6R)-4-(8-iodo-5-quinolyl)-6-methyl-N-(1-methyl-4-piperidyl)morpholine-2-carboxamide] reads below 3 nM; that for `C[C@@H]1CN(c2ccc(Cl)c3ncccc23)C[C@H](C(=O)NC2CCN(C)CC2)O1` [Example 24, (2R,6R)-4-(8-chloro-5-quinolyI)-6-methyl-N-(1-methyl-4-piperidyl)morpholine-2-carboxamide], below 3 nM; that for `C[C@@H]1CN(c2ccc(C(F)(F)F)c3ncccc23)C[C@H](C(=O)NCC2CCCCN2C)O1` (stereo partly drawn) [Example 4, (2R,6R)-6-methyl-N-[(1-methyl-2-piperidyl)methyl]-4-[8-(trifluoromethyl)-5-quinolyl]morpholine-2-carboxamide], 10 nM. Regarding `C[C@@H]1CN(c2ccc(C(F)(F)F)c3ncccc23)C[C@H](C(=O)NC2C3CNCC2COC3)O1` (single isomer, unassigned) [Example 46B], half-maximal inhibition (IC50) required 55 nM. The result for `C[C@@H]1CN(c2ccc(C(F)(F)F)c3ncccc23)C[C@H](C(=O)NC2CN(C)CC23CC3)O1` (stereo partly drawn) [Example 9, (2R,6R)-6-methyl-N-(5-methyl-5-azaspiro[2.4]heptan-7-yl)-4-[8-(trifluoromethyl)-5-quinolyl]morpholine-2-carboxamide] reads below 3 nM.

`C[C@@H]1CN(c2ccc(C(F)(F)F)c3ncccc23)C[C@H](C(=O)N2CCC(N)CC2)O1` [Example 12, (4-amino-1-piperidyl)-[(2R,6R)-6-methyl-4-[8-(trifluoromethyl)-5-quinolyl]morpholin-2-yl]methanone]: the IC50 was determined as 5 nM.

With `C[C@@H]1CN(c2ccc(C(F)(F)F)c3ncccc23)C[C@H](C(=O)NC2CC3CCCC(C2)N3)O1` (single isomer, unassigned) [Example 34B], the IC50 turned out to be 6 nM. Compound `C[C@@H]1CN(c2ccc(C(F)(F)F)c3ncccc23)C[C@H](C(=O)N[C@H]2CNC[C@H]2F)O1` (single isomer, unassigned) [Example 2B] had an IC50 of 8 nM. `C[C@@H]1CN(c2ccc(Br)c3ncccc23)C[C@H](C(=O)NC2CCN(C)CC2)O1` [Example 42, (2R,6R)-4-(8-bromo-5-quinolyl)-6-methyl-N-(1-methyl-4-piperidyl)morpholine-2-carboxamide] had an IC50 below 3 nM. `C[C@@H]1CN(c2ccc(C(F)(F)F)c3ncccc23)C[C@H](C(=O)NC2CC3CCC(C2)N3)O1` (single isomer, unassigned) [Example 47B] registered an IC50 below 3 nM. Next, `C[C@@H]1CN(c2ccc(C(F)(F)F)c3ncccc23)C[C@H](C(=O)N2CCC3(CCNC3)C2)O1` (stereo partly drawn) [Example 36]: 25 nM; `C[C@@H]1CN(c2ccc(C(F)(F)F)c3ncccc23)C[C@H](C(=O)N2CC(N)C2)O1` [Example 7, (3-aminoazetidin-1-yl)-[(2R,6R)-6-methyl-4-[8-(trifluoromethyl)-5-quinolyl]morpholin-2-yl]methanone]: 35 nM.

`C[C@@H]1CN(c2ccc(C(F)(F)F)c3ncccc23)C[C@H](C(=O)NC2CC3CCCC(C2)N3)O1` (single isomer, unassigned) [Example 34A] returned an IC50 below 3 nM. Next, `Cc1ccc(N2C[C@@H](C)C[C@@H](N)C2)c2cccnc12` [Example 15, (3R,5S)-5-methyl-1-(8-methyl-5-quinolyl)piperidin-3-amine]: 15 nM.
